From patent EP0552223B1, “USE OF BENZENE DERIVATIVES AS CHARGE TRANSFER MEDIATORS” (NOVO NORDISK A/S, priority 1990, dated 1992)

What was measured:
[1] = Redox potential of the mediator at GC electrode; assay type: physicochemical; conditions: Ag/AgCl ref.; in mV (unit assumed)
From the text: (§1) Data in the table are obtained using the same procedure as in Example 1.

[2] = molecular target: T1, Glucose oxidase (GOD) (E.C.1.1.3.4.) (Aspergillus niger, UniProt P13006); experiment: Cyclic voltammetry of GOD-graphite/paraffin pasta electrode containing the mediator; assay type: biochemical; conditions: Ag/AgCl ref.
T1 sequence (P13006 17-605, species assumed): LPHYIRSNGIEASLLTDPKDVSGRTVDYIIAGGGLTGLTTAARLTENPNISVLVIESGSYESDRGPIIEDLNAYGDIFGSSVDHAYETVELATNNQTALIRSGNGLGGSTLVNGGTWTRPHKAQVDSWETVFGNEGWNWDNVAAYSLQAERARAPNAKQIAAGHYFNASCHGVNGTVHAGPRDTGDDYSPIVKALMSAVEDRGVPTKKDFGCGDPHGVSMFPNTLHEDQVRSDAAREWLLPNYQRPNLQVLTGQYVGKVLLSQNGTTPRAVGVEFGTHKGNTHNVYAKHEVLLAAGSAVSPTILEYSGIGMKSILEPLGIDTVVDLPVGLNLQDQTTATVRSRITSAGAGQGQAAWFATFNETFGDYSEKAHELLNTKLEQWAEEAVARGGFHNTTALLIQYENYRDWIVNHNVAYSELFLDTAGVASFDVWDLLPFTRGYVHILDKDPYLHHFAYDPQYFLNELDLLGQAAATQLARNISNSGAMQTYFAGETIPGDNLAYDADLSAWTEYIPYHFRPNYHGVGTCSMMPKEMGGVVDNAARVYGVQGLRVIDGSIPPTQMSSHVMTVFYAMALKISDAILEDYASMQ
Method: • 1) A paste containing GOD-immobilized graphite, paraffin and mediator is prepared. If the mediator has a big solubility in paraffin then 10 mg of mediator is used per ml of paraffin. If the mediator has a little solubility in paraffin then 50 mg of crystals are added per ml of paraffin in order to obtain a homogeneous mixture before graphite is added. The paste obtained is filled into sticks. • 2) The activity of the paste is determined in a cyclic voltametri equipment where the current is measured as a function of the potential (CV sweep). Five concentrations of glucose are measured, i.e., 0, 5, 10, 15 and 20 mM. Based upon the results obtained, the following is evaluated: • a) whether the mediator can be oxidized and reduced by the graphite electrode, • b) whether the mediator can be reduced of GOD, • c) the optimal potential for the electorde to be used, • d) whether a lineary response as a function of the concentration of glucose can be obtained using the concentration of mediator in question, • e) whether the concentration of the mediator can be optimized. • 3) The response as a function of time at the optimal potential is to be measured. The time interval within which the response represents a stable response for the concentration of glucose is to be evaluated. • 4) The stability of the mediator in the paste question is determined.
(§2) Glucose oxidase (GOD) (E.C.1.1.3.4.) was immobilized on graphite particles by the following procedure: 10 g of graphite was oxidized in air at 100°C for 24 hours. The surface oxidized graphite particles were activated with 500 mg of 1-cyclohexyl-3-(2-morpholinoethyl)carbodiimide metho-p-toluenesulfonate in 100 ml of 0.1 M acetate buffer (pH 4.76) for 2 hours, then washed with distilled water until an approximately neutral pH value and dried. The activated graphite was mixed with 30 ml of 0.01 phosphate buffer (pH 7.3) containing 80,000 IU GOD and 4% glutaraldehyde for 16 hours at 4°C, dried and sieved through a 48 mesh to obtain uniform particles.
(§3) 1 g of paraffin oil containing 5% Methylene green (4-nitro-3,7-bis(dimethylamino)phenothiazine) was mixed carefully with 2 g of GOD modified graphite to a uniform pasta.
(§4) The pasta was filled into a plastic rod in which it was possible to cut a thin cross-sectional slice to introduce a new well-defined electrode area. Before each measurement, the electrode surface was renewed. The working electrode area used was 3 mm^2.
In the study of the working electrode, an Ag auxiliary electrode and an Ag/AgCl reference electrode was used. In a cyclic voltammogram, a catalytic current from the reoxidation of the mediator was observed beginning at -50 mV and being stable between 50 and 400 mV. The current was proportional to the concentration of glucose used.
as §1

Lactate oxidase = molecular target: T2, Lactate oxidase (Aerococcus viridans, UniProt Q44467); experiment: Lactate assay with enzyme-graphite pasta electrode and mediator; assay type: biochemical; conditions: lactate system; at 100 mV vs. Ag/AgCl reference electrode
T2 construct: purchased Sigma
T2 sequence (Q44467 1-374): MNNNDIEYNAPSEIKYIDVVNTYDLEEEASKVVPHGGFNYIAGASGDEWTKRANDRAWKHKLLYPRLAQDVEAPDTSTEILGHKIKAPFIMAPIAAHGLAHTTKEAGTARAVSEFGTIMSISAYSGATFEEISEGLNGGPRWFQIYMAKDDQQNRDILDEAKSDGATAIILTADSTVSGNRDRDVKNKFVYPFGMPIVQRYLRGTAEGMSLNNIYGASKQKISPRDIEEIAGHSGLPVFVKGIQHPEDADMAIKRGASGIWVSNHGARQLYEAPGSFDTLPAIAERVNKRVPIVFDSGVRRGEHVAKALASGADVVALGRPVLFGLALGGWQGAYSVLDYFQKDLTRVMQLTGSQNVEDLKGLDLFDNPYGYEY
Method: Lactate oxidase and alcohol oxidase were obtained from Sigma and the enzymes were used as in Example 1. The same mediators as in Example 4 were tested in the electrodes. The best response for the lactate system was obtained with Methylene green, which gave a current density at 4 µA/cm^2/mM at 100 mV vs. Ag/AgCl reference electrode. For the alcohol system ethanol was used as enzyme substrate. The current density was much lower than for the lactate system and none of the tested mediators worked optimally. Other mediators sucessfully tested with glucose oxidase are expected to give higher current densitites due to differences in hydrophobicity and hydrophillicity.

[3] = Stability test of pasta rods with selected mediators stored at different temperatures; assay type: physicochemical; set-up: unit not given here
Method: The stability of a paste with a certain mediator can be determined using the following method:
The mediator is dissolved or mixed with paraffin and, thereafter, the enzyme coupled to graphite is added. The mixture is homogenized giving a paste. This paste is filled into electrode holders of plast giving so-called sticks. These sticks are tested using 0 and 10 mM glucose standards in order to characterize the activity of these sticks in relation to glucose. Thereafter, the paste containing sticks are stored at a constant temperature, for example, 4, 20, 35 and 54°C. After a certain period of time, for example 1 month, the sticks are tested using the 0 and 10 mM glucose standards and the activities measured are compared with the activity measured at originally.
Data are obtained using the same basis procedure as in Example 1. Rods with selected mediators were stored at different temperature to accelerate processes which could give new analytical performance.

[4] = molecular target: T1, Glucose oxidase (GOD) (E.C.1.1.3.4.); experiment: Chronoamperometry of GOD-graphite/paraffin pasta electrode containing the mediator (glucose measurement); assay type: biochemical
Method: as §2, §3, §4
Chronoamperometry was preformed at 100 mV using the integrated current from 30 to 60 seconds after applying the potential. A linearity up to 40 mM glucose was obtained. The current was 500 nA/(sec*mM). The signal was not affected by the oxygen concentration in the solution. Reference pasta without Methylene green was not affected by different glucose concentrations.
as §1

CN(C)c1ccc2c(c1)Sc1c(ccc(N(C)C)c1[N+](=O)[O-])N2 [MG, 4-nitro-3,7-bis(dimethylamino)phenothiazine]
Redoxpotential at GCElectrode [1]: -149
Catalytic interval beginning at [2]: -50 mV
current density (Lactate oxidase): 4 µA/cm^2/mM
activity of rod in stability test ([3]; 4°C, listed as a, Time 0): 13.7
activity of rod in stability test ([3]; 4°C, listed as a, Time 75): 13.2
activity of rod in stability test ([3]; 4°C, listed as b, Time 0): 10.0
activity of rod in stability test ([3]; 4°C, listed as b, Time 75): 14.3
activity of rod in stability test ([3]; 20°C, listed as a, Time 0): 14.9
activity of rod in stability test ([3]; 20°C, listed as a, Time 75): 14.3
activity of rod in stability test ([3]; 20°C, listed as b, Time 0): 12.5
activity of rod in stability test ([3]; 20°C, listed as b, Time 75): 15.4
activity of rod in stability test ([3]; 35°C, listed as a, Time 0): 12.1
activity of rod in stability test ([3]; 35°C, listed as a, Time 75): 11.2
activity of rod in stability test ([3]; 35°C, listed as b, Time 0): 13.3
activity of rod in stability test ([3]; 35°C, listed as b, Time 75): 12.2
activity of rod in stability test ([3]; 54°C, listed as a, Time 0): 15.8
activity of rod in stability test ([3]; 54°C, listed as a, Time 75): 10.4
activity of rod in stability test ([3]; 54°C, listed as b, Time 0): 12.8
activity of rod in stability test ([3]; 54°C, listed as b, Time 75): 12.6
Working potential ([4]; Ag/AgCl ref.): 100
SD% of 100 measurement ([4]; at 7mM glucose): 7.5%
Signal to noice ration ([4]; at 7mM glucose): 22.5
signal affected by the oxygen concentration in the solution ([4]; at 100 mV): not affected
current ([4]; at 100 mV, integrated current from 30 to 60 seconds after applying the potential): 500 nA/(sec*mM)
Linearity ([4]; glucose): 40 mM
Linearity in mM ([4]; glucose, listed as Methylene green): up to 40 mM
